Active and inactive are the calls of the source.
What was measured:
[1] = molecular target: Sphingosine 1-phosphate receptor 2 (Homo sapiens, UniProt O95136); assay: Dose Response Cell Based Assay for Antagonists of the S1P2 Receptor. [Related pubchem assays: 856, 736 ]; type: functional
Protein Tat = Protein Tat (Human immunodeficiency virus type 1 group M subtype B (isolate HXB2)(HIV-1), UniProt P04608); type: functional;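 also: tat binding to TAR RNA read out by fluorescence polarization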
[2] = molecular target: Induced myeloid leukemia cell differentiation protein Mcl-1 (Homo sapiens, UniProt Q07820); type: functional
fMet-Leu-Phe receptor = fMet-Leu-Phe receptor (Homo sapiens, UniProt P21462); assay: formyl peptide receptor binders – dose response (AID 519); type: functional
Cytochrome P450 3A4 = Cytochrome P450 3A4 (Homo sapiens, UniProt P08684);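 also: CYP3A4 tested as one member of a cytochrome P450 panel screen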
[3] = molecular target: Mitogen-activated protein kinase 10 (Homo sapiens, UniProt P53779); assay: Dose response biochemical screening assay for inhibitors of c-Jun N-Terminal Kinase 3 (JNK3). [Related pubchem assays: 746 ]
[4] = THP-1 cell cytotoxicity, dose response, cytotoxicity control for non-replicating M. tuberculosis project (AID 489025); type: functional
[5] = HepG2 cell cytotoxicity, dose response, cytotoxicity control for non-replicating M. tuberculosis project (AID 489018); type: functional; conditions: Mycobacterium tuberculosis
[6] = Vero E6 cell cytotoxicity, dose response, cytotoxicity control for non-replicating M. tuberculosis project, secondary assay (AID 492998); type: functional, VeroE6; conditions: Vero C1008
[7] = molecular target: T1, Microphthalmia-associated transcription factor (Homo sapiens, UniProt O75030); assay: reducers of TRPM1 reporter luminescence, concentration series – cell-based, SK-MEL-5, cherry-picked, set 3, MITF inhibitor project, dose response (AID 493073); type: functional;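 also: SK-MEL-5 melanoma cells with luciferase driven by the MITF target TRPM1 promoter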
T1 sequence (O75030 whole entry): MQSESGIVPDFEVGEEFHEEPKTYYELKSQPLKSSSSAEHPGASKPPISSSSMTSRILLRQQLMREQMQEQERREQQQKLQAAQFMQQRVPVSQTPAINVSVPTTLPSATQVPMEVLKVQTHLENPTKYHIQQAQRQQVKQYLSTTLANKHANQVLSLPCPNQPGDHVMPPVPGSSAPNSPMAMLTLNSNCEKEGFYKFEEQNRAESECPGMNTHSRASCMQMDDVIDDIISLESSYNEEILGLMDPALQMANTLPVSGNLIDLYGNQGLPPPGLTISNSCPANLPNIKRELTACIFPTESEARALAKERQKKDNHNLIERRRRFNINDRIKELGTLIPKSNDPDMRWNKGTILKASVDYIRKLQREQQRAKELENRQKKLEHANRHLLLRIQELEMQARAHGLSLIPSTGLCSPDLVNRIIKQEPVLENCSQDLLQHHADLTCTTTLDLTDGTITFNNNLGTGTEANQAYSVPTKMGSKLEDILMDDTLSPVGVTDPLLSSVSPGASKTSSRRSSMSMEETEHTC

cells [8] = type: functional
Paired box protein Pax-8 = Paired box protein Pax-8 (Homo sapiens, UniProt Q06710); assay: PAX8 transcriptional activity inhibition in RMG-I – RMG-I cells, luciferase, cherry-pick, dose response (AID 687027); type: functional, cell-based;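 also: luciferase reporter driven by Pax8 target thyroperoxidase promoter measured by SteadyGlo luminescence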
[9] = reduced cellular PGC1a acetyl-lysine signal – cell-based, cherry-picked samples, dose response (AID 720514); type: functional;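 also: potency may reflect raised or lowered acetylation signal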
[10] = viability of uninfected HEp-2 cells – cell-based, HTS, cytotoxicity control for RSV inhibitor project, dose response (AID 2410); type: functional; conditions: human respiratory syncytial virus
Genome polyprotein = Genome polyprotein (Hepatitis C virus, UniProt Q2Q167); assay: disruption of hepatitis C core self-association – biochemical, TR-FRET, dose response (AID 2159); set-up: species or system Hepacivirus hominis;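 also: blocks dimerization of HCV core protein measured by TR-FRET between tagged core106 pairs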
[11] = molecular target: Glucose-6-phosphate 1-dehydrogenase (Homo sapiens, UniProt P11413); assay: inhibition of Homo sapiens G6PD, dose series – biochemical, fluorescence, selectivity assay for P. falciparum G6PD inhibitor project, dose response (AID 504792); type: functional
Major prion protein = Major prion protein (Homo sapiens, UniProt P04156); type: functional, cell-based
cells [12] = assay: cells
[13] = molecular target: Heat shock protein HSP 90-alpha (Homo sapiens, UniProt P07900); assay: Luminescence-based dose response biochemical high throughput screening assay for inhibitors of the Heat Shock Protein 90 (HSP90). [Related pubchem assays: 1831 (Summary AID.), 1846 (Confirmation screen.), 1789 (Primary screen.)]
Large T antigen = Large T antigen (Simian virus 40, UniProt P03070); type: functional, Betapolyomavirus macacae;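 also: Confirmatory-stage PubChem screen for compounds that inhibit SV40 T antigen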

**Q.** With `O=C(Nc1ccc(F)cc1)c1sccc1S(=O)(=O)Cc1cccc(C(F)(F)F)c1` as the compound, how does the IC50 [1] read?
**A.** The IC50 was 18.4 µM (not active).

**Q.** For `CCOC(=O)C1=C(O)/C(=C/c2ccc(CNC(=O)C(=O)Nc3ccc(C)cc3)o2)N=C1C`, which IC50 (Protein Tat) is on record?
**A.** The IC50 was 47.8 µM (inconclusive).

**Q.** For `O=C(NC1CCCCC1)c1sc(=S)n2c1[nH]c(=O)c1ccccc12`, which IC50 [2] is on record?
**A.** The IC50 was > 54 µM (active).

**Q.** And the Ki (fMet-Leu-Phe receptor)?
**A.** Its Ki is 40.6 µM (inactive).

**Q.** And the AC50 (Cytochrome P450 3A4)?
**A.** Its AC50 is 0.794 µM (inconclusive).

**Q.** Which IC50 [3] does the source give for `Cc1cccc(-n2ncc3c(NCc4cccs4)ncnc32)c1` here?
**A.** Its IC50 is 72 µM (not active).

**Q.** With `Cc1cccc(C2CC(c3ccc(Cl)cc3)Nc3nc(N)nn32)c1` (centres undefined) as the compound, how does the Ki (fMet-Leu-Phe receptor) read?
**A.** Its Ki is > 66.7 µM (inactive).

**Q.** Which CC50 [4] does the source give for `Cn1nnnc1Sc1ncnc2scc(-c3ccc[nH]3)c12` here?
**A.** Its CC50 is 14.8 µM (active).

**Q.** And the CC50 [5]?
**A.** The CC50 was 15.8 µM (active).

**Q.** What about the CC50 [6] of the same compound?
**A.** Its CC50 is 13 µM (active).

**Q.** And the AC50 [7]?
**A.** The AC50 was 7.32 µM (active).

**Q.** And the IC50 (cells [8])?
**A.** Its IC50 is 15.2 µM (active).

**Q.** What about the AC50 (Paired box protein Pax-8) of the same compound?
**A.** Its AC50 is 2.96 µM (active).

**Q.** And the AC50 [9]?
**A.** The AC50 was 7.84 µM (active).

**Q.** Which CC50 [10] does the source give for `Brc1cc2[nH]cnc2c2ccccc12` here?
**A.** Its CC50 is 37.8 µM (active).

**Q.** And the IC50 (Genome polyprotein)?
**A.** The IC50 was > 49.8 µM (not active).

**Q.** And the IC50 [11]?
**A.** Its IC50 is > 80 µM (inactive).

**Q.** And the IC50 (Major prion protein)?
**A.** Its IC50 is 5.96 µM (active).

**Q.** And the IC50 (cells [12])?
**A.** The IC50 was > 138 µM (inactive).

**Q.** For `O=c1c2c(nc3n1CCCCC3)sc1c(O)cccc12`, which IC50 [3] is on record?
**A.** Its IC50 is 55.7 µM (not active).

**Q.** Which IC50 [13] does the source give for `C=CCc1ccc(OCc2ccc(C(=O)OC)o2)c(OC)c1` here?
**A.** The IC50 was 7.02 µM (active).

**Q.** With `CC(NC(=O)Nc1ccc(O)cc1)(C(F)(F)F)C(F)(F)F` as the compound, how does the IC50 (Large T antigen) read?
**A.** The IC50 was 14.3 µM (active).

**Q.** What about the IC50 (Protein Tat) of the same compound?
**A.** The IC50 was 44.8 µM (inconclusive).

**Q.** For `O=C(c1sc2cc(C(F)(F)F)cnc2c1-c1ccccc1)N1CCOCC1`, which IC50 [1] is on record?
**A.** Its IC50 is > 30 µM (not active).

From ChEMBL document CHEMBL1201862, “PubChem BioAssay data set” (2004)
